Values after ≈ are worked out from the molar mass of the structure shown.
System: Staphylococcus aureus
Test: Bactericidal activity against methicillin resistant Staphylococcus aureus NRS119 assessed as reduction in bacterial cell growth incubated for 18 to 20 hrs followed by re-plating on tryptic soy agar plates at 37 degC for 18 hrs by broth microdilution assay
Assay type: functional
Details: not given

| Structure (SMILES) | MBC [µg/mL] |
| --- | --- |
| C/C(=N\NC(=N)N)c1sc(-c2ccc(C#CC3(O)CCCCC3)cc2)nc1C | 4 (≈ 10.1 µM) |

System: Staphylococcus aureus
Test: Bactericidal activity against methicillin-resistant Staphylococcus aureus USA300 assessed as reduction in bacterial cell growth incubated for 18 to 20 hrs followed by re-plating on tryptic soy agar plates at 37 degC for 18 hrs by broth microdilution assay
Assay type: functional
Details: not given

| Structure (SMILES) | MBC [µg/mL] |
| --- | --- |
| C/C(=N\NC(=N)N)c1sc(-c2ccc(C#CC3(O)CCCCC3)cc2)nc1C | 16 (≈ 40.5 µM) |

System: Staphylococcus aureus
Test: Bactericidal activity against vancomycin resistant Staphylococcus aureus VRS10 assessed as reduction in bacterial cell growth incubated for 18 to 20 hrs followed by re-plating on tryptic soy agar plates at 37 degC for 18 hrs by broth microdilution assay
Assay type: functional
Details: not given

| Structure (SMILES) | MBC [µg/mL] |
| --- | --- |
| C/C(=N\NC(=N)N)c1sc(-c2ccc(C#CC3(O)CCCCC3)cc2)nc1C | 8 (≈ 20.2 µM) |

System: Staphylococcus aureus
Test: Bactericidal activity against vancomycin resistant Staphylococcus aureus VRS11a assessed as reduction in bacterial cell growth incubated for 18 to 20 hrs followed by re-plating on tryptic soy agar plates at 37 degC for 18 hrs by broth microdilution assay
Assay type: functional
Details: not given

| Structure (SMILES) | MBC [µg/mL] |
| --- | --- |
| C/C(=N\NC(=N)N)c1sc(-c2ccc(C#CC3(O)CCCCC3)cc2)nc1C | 8 (≈ 20.2 µM) |

System: Staphylococcus aureus
Test: Bactericidal activity against vancomycin resistant Staphylococcus aureus VRS12 assessed as reduction in bacterial cell growth incubated for 18 to 20 hrs followed by re-plating on tryptic soy agar plates at 37 degC for 18 hrs by broth microdilution assay
Assay type: functional
Details: not given

| Structure (SMILES) | MBC [µg/mL] |
| --- | --- |
| C/C(=N\NC(=N)N)c1sc(-c2ccc(C#CC3(O)CCCCC3)cc2)nc1C | 8 (≈ 20.2 µM) |

System: Enterococcus faecalis
Test: Bactericidal activity against vancomycin resistant Enterococcus faecalis ATCC 51299 assessed as reduction in bacterial cell growth incubated for 18 to 20 hrs followed by re-plating on tryptic soy agar plates at 37 degC for 18 hrs by broth microdilution assay
Assay type: functional
Details: not given

| Structure (SMILES) | MBC [µg/mL] |
| --- | --- |
| C/C(=N\NC(=N)N)c1sc(-c2ccc(C#CC3(O)CCCCC3)cc2)nc1C | 16 (≈ 40.5 µM) |

System: Enterococcus faecium
Test: Bactericidal activity against vancomycin resistant Enterococcus faecium ATCC 700221 assessed as reduction in bacterial cell growth incubated for 18 to 20 hrs followed by re-plating on tryptic soy agar plates at 37 degC for 18 hrs by broth microdilution assay
Assay type: functional
Details: not given

| Structure (SMILES) | MBC [µg/mL] |
| --- | --- |
| C/C(=N\NC(=N)N)c1sc(-c2ccc(C#CC3(O)CCCCC3)cc2)nc1C | 1 (≈ 2.53 µM) |

System: Listeria monocytogenes
Test: Bactericidal activity against Listeria monocytogenes ATCC 19111 assessed as reduction in bacterial cell growth incubated for 18 to 20 hrs followed by re-plating on tryptic soy agar plates at 37 degC for 18 hrs by broth microdilution assay
Assay type: functional
Details: not given

| Structure (SMILES) | MBC [µg/mL] |
| --- | --- |
| C/C(=N\NC(=N)N)c1sc(-c2ccc(C#CC3(O)CCCCC3)cc2)nc1C | 8 (≈ 20.2 µM) |

System: Streptococcus pneumoniae
Test: Bactericidal activity against Cephalosporin resistant Streptococcus pneumoniae ATCC 51916 assessed as reduction in bacterial cell growth incubated for 18 to 20 hrs followed by re-plating on tryptic soy agar plates at 37 degC for 18 hrs by broth microdilution assay
Assay type: functional
Details: not given

| Structure (SMILES) | MBC [µg/mL] |
| --- | --- |
| C/C(=N\NC(=N)N)c1sc(-c2ccc(C#CC3(O)CCCCC3)cc2)nc1C | 8 (≈ 20.2 µM) |

System: Acinetobacter baumannii
Test: Antibacterial activity against Acinetobacter baumannii ATCC 19606 assessed as reduction in bacterial cell growth incubated for 18 to 20 hrs by broth microdilution method
Assay type: functional
Details: not given

| Structure (SMILES) | MIC [µg/mL] |
| --- | --- |
| C/C(=N\NC(=N)N)c1sc(-c2ccc(C#CC3(O)CCCCC3)cc2)nc1C | 64 (≈ 162 µM) |

System: Escherichia coli
Test: Antibacterial activity against Escherichia coli BW25113 assessed as reduction in bacterial cell growth incubated for 18 to 20 hrs by broth microdilution method
Assay type: functional
Details: not given

| Structure (SMILES) | MIC [µg/mL] |
| --- | --- |
| C/C(=N\NC(=N)N)c1sc(-c2ccc(C#CC3(O)CCCCC3)cc2)nc1C | > 64 |

System: Escherichia coli
Test: Antibacterial activity against Escherichia coli JW55031 harboring deltatolC mutant assessed as reduction in bacterial cell growth incubated for 18 to 20 hrs by broth microdilution method
Assay type: functional
Details: not given

| Structure (SMILES) | MIC [µg/mL] |
| --- | --- |
| C/C(=N\NC(=N)N)c1sc(-c2ccc(C#CC3(O)CCCCC3)cc2)nc1C | 32 (≈ 80.9 µM) |

System: Pseudomonas aeruginosa
Test: Antibacterial activity against Pseudomonas aeruginosa ATCC 15442 assessed as reduction in bacterial cell growth incubated for 18 to 20 hrs by broth microdilution method
Assay type: functional
Details: not given

| Structure (SMILES) | MIC [µg/mL] |
| --- | --- |
| C/C(=N\NC(=N)N)c1sc(-c2ccc(C#CC3(O)CCCCC3)cc2)nc1C | > 64 |

System: Acinetobacter baumannii
Test: Bactericidal activity against Acinetobacter baumannii ATCC 19606 assessed as reduction in bacterial cell growth incubated for 18 to 20 hrs followed by re-plating on tryptic soy agar plates at 37 degC for 18 hrs by broth microdilution assay
Assay type: functional
Details: not given

| Structure (SMILES) | MBC [µg/mL] |
| --- | --- |
| C/C(=N\NC(=N)N)c1sc(-c2ccc(C#CC3(O)CCCCC3)cc2)nc1C | 64 (≈ 162 µM) |

System: Escherichia coli
Test: BActericidal activity against Escherichia coli BW25113 assessed as reduction in bacterial cell growth incubated for 18 to 20 hrs followed by re-plating on tryptic soy agar plates at 37 degC for 18 hrs by broth microdilution assay
Assay type: functional
Details: not given

| Structure (SMILES) | MBC [µg/mL] |
| --- | --- |
| C/C(=N\NC(=N)N)c1sc(-c2ccc(C#CC3(O)CCCCC3)cc2)nc1C | > 64 |

System: Pseudomonas aeruginosa
Test: Bactericidal activity against Pseudomonas aeruginosa ATCC 15442 assessed as reduction in bacterial cell growth incubated for 18 to 20 hrs followed by re-plating on tryptic soy agar plates at 37 degC for 18 hrs by broth microdilution assay
Assay type: functional
Details: not given

| Structure (SMILES) | MBC [µg/mL] |
| --- | --- |
| C/C(=N\NC(=N)N)c1sc(-c2ccc(C#CC3(O)CCCCC3)cc2)nc1C | > 64 |

System: J774
Test: Cytotoxicity against mouse J774 assessed as reduction in cell viability at 16 ug/ml incubated for 24 hrs by MTS assay
Assay type: cell-based
Details: j774, 24 h

| Structure (SMILES) | Activity |
| --- | --- |
| C/C(=N\NC(=N)N)c1sc(-c2ccc(C#CC3(O)CCCCC3)cc2)nc1C | Non-Toxic |

System: not listed separately
Test: Solubility of compound in PBS after 2 hrs by turbidity based absorbance analysis
Assay type: physicochemical
Details: not given

| Structure (SMILES) | solubility kinetic at 2 h [µM] |
| --- | --- |
| C/C(=N\NC(=N)N)c1sc(-c2ccc(C#CC3(O)CCCCC3)cc2)nc1C | 147 (≈ 58.1 µg/mL) |
